US7739055B2, “Methods and systems for generating and evaluating peptides” (priority 2005, dated 2010)
≈ marks a conversion by molar mass, not a printed value. Like-named read-outs stand apart in the source and are kept apart here. Where a SMILES comes first, the peptide text is derived from it.

Experiments:
[1] = test system: B. cereus
[2] = test system: Escherichia coli
[3] = first concentration that prohibits growth by OD at 24 hours, Table 1

Row | SMILES | MIC B. cereus [1] | MIC E. coli [2, 3] | MIC B. cereus ([1]; 24 h) | MIC E. coli ([2]; 24 h)
1 | CC[C@H](C)[C@H](NC(=O)CNC(=O)[C@@H](NC(=O)[C@H](CCCCN)NC(=O)[C@H](CCCCN)NC(=O)[C@H](Cc1ccccc1)NC(=O)[C@H](CC(C)C)NC(=O)[C@H](CCCCN)NC(=O)[C@H](Cc1c[nH]c2ccccc12)NC(=O)[C@@H](N)CCCCN)[C@@H](C)CC)C(=O)NCC(=O)N[C@@H](CCCCN)C(=O)N[C@@H](Cc1ccccc1)C(=O)N[C@@H](CC(C)C)C(=O)N[C@@H](Cc1c[nH]cn1)C(=O)N[C@@H](CO)C(=O)N[C@@H](C)C(=O)N[C@@H](CCCCN)C(=O)N[C@@H](CCCCN)C(=O)N[C@@H](Cc1ccccc1)C(=O)O [Cec A Mag 2] (H-KWKLFKKIGIGKFLHSAKKF-OH; N-terminus and C-terminus assumed) | + (key: +: MIC greater than 256 ug/mL; ++: MIC greater than 128 ug/mL, not sufficiently soluble to test as 256 ug/mL) | 32 µg/mL (≈ 13.3 µM) |  | 
2 | CC[C@H](C)[C@H](NC(=O)CNC(=O)[C@H](CCC(=O)O)NC(=O)[C@H](CO)NC(=O)[C@@H](NC(=O)[C@H](CCCNC(=N)N)NC(=O)[C@H](CCCCN)NC(=O)[C@H](CCCCN)NC(=O)[C@H](C)NC(=O)[C@H](CO)NC(=O)[C@H](CC(N)=O)NC(=O)[C@H](CCC(=O)O)NC(=O)[C@H](CC(C)C)NC(=O)[C@H](CCCCN)NC(=O)[C@H](CCCCN)NC(=O)[C@H](C)NC(=O)[C@@H](NC(=O)[C@H](CCCCN)NC(=O)[C@H](CO)NC(=O)[C@H](CC(C)C)NC(=O)[C@H](Cc1c[nH]c2ccccc12)NC(=O)[C@@H](N)CO)[C@@H](C)O)[C@@H](C)CC)C(=O)N[C@@H](C)C(=O)N[C@H](C(=O)N[C@@H](C)C(=O)N[C@H](C(=O)N[C@@H](CCC(N)=O)C(=O)NCC(=O)NCC(=O)N1CCC[C@H]1C(=O)N[C@@H](CCCNC(=N)N)C(=O)O)[C@@H](C)CC)[C@@H](C)CC [Cecropin P1] (H-SWLSKTAKKLENSAKKRISEGIAIAIQGGPR-OH; N-terminus and C-terminus assumed) | + (key: +: MIC greater than 256 ug/mL; ++: MIC greater than 128 ug/mL, not sufficiently soluble to test as 256 ug/mL) | 2 µg/mL (≈ 0.599 µM) |  | 
3 | CC[C@H](C)[C@H](NC(=O)CN)C(=O)NCC(=O)N[C@@H](CCCCN)C(=O)N[C@@H](Cc1ccccc1)C(=O)N[C@@H](CC(C)C)C(=O)N[C@@H](Cc1c[nH]cn1)C(=O)N[C@@H](CO)C(=O)N[C@@H](C)C(=O)N[C@@H](CCCCN)C(=O)N[C@@H](CCCCN)C(=O)N[C@@H](Cc1ccccc1)C(=O)NCC(=O)N[C@@H](CCCCN)C(=O)N[C@@H](C)C(=O)N[C@@H](Cc1ccccc1)C(=O)N[C@H](C(=O)NCC(=O)N[C@@H](CCC(=O)O)C(=O)N[C@H](C(=O)N[C@@H](CCSC)C(=O)N[C@@H](CC(N)=O)C(=O)N[C@@H](CO)C(=O)O)[C@@H](C)CC)C(C)C [Magainin 2] (H-GIGKFLHSAKKFGKAFVGEIMNS-OH; N-terminus and C-terminus assumed) |  |  | 256 µg/mL (≈ 104 µM) | 64 µg/mL (≈ 25.9 µM)
4 | CC[C@H](C)[C@H](NC(=O)CN)C(=O)NCC(=O)N[C@@H](C)C(=O)N[C@H](C(=O)N[C@@H](CC(C)C)C(=O)N[C@@H](CCCCN)C(=O)N[C@H](C(=O)N[C@@H](CC(C)C)C(=O)N[C@H](C(=O)N[C@H](C(=O)NCC(=O)N[C@@H](CC(C)C)C(=O)N1CCC[C@H]1C(=O)N[C@@H](C)C(=O)N[C@@H](CC(C)C)C(=O)N[C@H](C(=O)N[C@@H](CO)C(=O)N[C@@H](Cc1c[nH]c2ccccc12)C(=O)N[C@H](C(=O)N[C@@H](CCCCN)C(=O)N[C@@H](CCCNC(=N)N)C(=O)N[C@@H](CCCCN)C(=O)N[C@@H](CCCNC(=N)N)C(=O)N[C@@H](CCC(N)=O)C(=O)N[C@@H](CCC(N)=O)C(N)=O)[C@@H](C)CC)[C@@H](C)CC)[C@@H](C)O)[C@@H](C)O)C(C)C)C(C)C [Melittin] |  |  | 8 µg/mL (≈ 2.81 µM) | 
